21 molecules from ChEMBL document CHEMBL6103648, “AI-Driven Discovery of Highly Specific and Efficacious hCES2A Inhibitors for Ameliorating Irinotecan-Triggered Gut Toxicity” (J Med Chem, 2025) can be followed below.

This test can be described thus: Inhibition of human CES2A using fluorescein diacetate as substrate preincubated for 3 mins followed by substrate addition measured after 30 mins by fluorescence based assay.
With `CCN(CC)C(=O)Oc1ccc(CCC(=O)N2CCC(Cc3ccccc3)CC2)cc1OC`, 34 nM corresponded to half-maximal inhibition (IC50). In turn, `CCN(C)C(=O)Oc1ccc(C(=O)N2CCC(CCCc3ccccc3)CC2)cc1OC` showed an IC50 of 2.94 nM. The figure for `CCN(C)C(=O)Oc1ccc(C(=O)N2CCN(Cc3ccccc3)CC2)cc1OC` is 5.93 nM; for `COc1cc(CCC(=O)N2CCC(Cc3ccccc3)CC2)ccc1OC(=O)N(C)C` it is 4.1 nM; for `CCN(C)C(=O)Oc1ccc(CCC(=O)N2CCC(c3ccccc3)CC2)cc1OC` it is 4.85 nM.

The molecule `CCN(C)C(=O)Oc1ccc(C(=O)N2CCC(Cc3ccc(F)cc3)CC2)cc1OC` showed an IC50 of 1.31 nM. The figure for `CCN(C)C(=O)Oc1ccc(C(=O)N2CCC(C(=O)c3ccc(F)cc3)CC2)cc1OC` is 10.3 nM; for `CCN(C)C(=O)Oc1ccc(CCC(=O)N2CCC(Cc3ccccc3)CC2)cc1OC` it is 3.31 nM; for `CCN(C)C(=O)Oc1ccc(C(=O)N2CCC(c3ccccc3)CC2)cc1OC` it is 1.47 nM. The figure for `CCN(C)C(=O)Oc1ccc(CCC(=O)N2CCc3ccccc3C2)cc1` is 7.39 nM; for `CCN(C)C(=O)Oc1ccc(C(=O)N2CCc3ccccc3C2)cc1OC` it is 2.06 nM. The figure for `CCN(C)C(=O)Oc1ccc(/C=C/C(=O)N2CCC(Cc3ccccc3)CC2)cc1` is 1.46 nM. As to `CCN(CC)C(=O)COc1ccc(C(C)=O)cc1OC`, the IC50 stood at 460 nM. Compared with the last molecule, the IC50 is about 320-fold higher. The result for `CN(C)C(=O)C(CCN1CCC(O)(c2ccc(Cl)cc2)CC1)(c1ccccc1)c1ccccc1` [LOPERAMIDE] reads 404 nM; that for `CCN(C)C(=O)Oc1ccc(CCC(=O)N2CCN(Cc3ccccc3)CC2)cc1OC`, 57.3 nM; that for `CNC(=O)COc1ccc(C(C)=O)cc1OC`, 462 nM. The figure for `CCN(C)C(=O)Oc1ccc(CCC(=O)N2CCc3ccccc3C2)cc1OC` is 6.05 nM; for `CCOc1cc(C(=O)N2CCC(Cc3ccccc3)CC2)ccc1OC(=O)N(C)CC` it is 1.13 nM; for `COc1cc(CCC(=O)N2CCC(Cc3ccccc3)CC2)ccc1OC(=O)N1CCOCC1` it is 7.27 nM. On to `CCN(C)C(=O)Oc1ccc(C(=O)N2CCC(Cc3ccccc3)CC2)cc1OCC1CC1`, for which half-maximal inhibition (IC50) was put at 1.02 nM.

`CCN(C)C(=O)Oc1ccc(/C=C/C(=O)N2CCC(c3ccccc3)CC2)cc1OC` yielded an IC50 of 3.18 nM.

A word on the IC50: it is the concentration that gives 50% inhibition.
